{"source": "patent US20230036854A1", "about": "“HETEROCYCLIC SPIRO-COMPOUNDS AS AM2 RECEPTOR INHIBITORS” (THE UNIVERSITY OF SHEFFIELD, priority 2018, published 2023)", "molecular_target": "T1, AM2 receptor (1321N1 cells transfected with CALCRL+RAMP3) (Homo sapiens, UniProt O60896+Q16602)", "T1 construct": "host or cells: 1321N1 cells", "T1 sequence (Q16602 23-461)": "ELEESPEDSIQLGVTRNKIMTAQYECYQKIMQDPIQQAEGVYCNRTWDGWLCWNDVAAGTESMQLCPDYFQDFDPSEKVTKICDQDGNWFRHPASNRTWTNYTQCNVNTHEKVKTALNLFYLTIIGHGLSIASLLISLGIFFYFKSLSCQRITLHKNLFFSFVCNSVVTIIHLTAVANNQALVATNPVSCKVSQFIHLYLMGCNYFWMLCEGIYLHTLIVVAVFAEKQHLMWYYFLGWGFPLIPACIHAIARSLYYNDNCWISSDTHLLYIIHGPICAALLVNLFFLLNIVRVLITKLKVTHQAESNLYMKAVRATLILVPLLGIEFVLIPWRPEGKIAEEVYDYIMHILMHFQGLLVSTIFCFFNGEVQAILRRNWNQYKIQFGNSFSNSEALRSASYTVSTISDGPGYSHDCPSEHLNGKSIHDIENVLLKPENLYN", "T1 sequence (O60896 24-148)": "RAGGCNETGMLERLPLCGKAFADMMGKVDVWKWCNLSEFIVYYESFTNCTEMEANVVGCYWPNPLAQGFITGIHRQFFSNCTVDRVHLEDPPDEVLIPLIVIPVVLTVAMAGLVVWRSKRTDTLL", "assay": "AM2 receptor inhibition, LANCE cAMP agonist-antagonist competition assay", "format": "cell-based", "conditions": "inhibition of AM induced cAMP activation, read-out: AM2 D2 protocol: pIC50 (converted)", "experimental": "Compounds were assessed for their ability to inhibit ligand-induced elevations of cAMP, using the Perkin Elmer LANCE cAMP assay using commercially-available cells expressing a specific receptor of interest using the following general procedure:\nCompounds were prepared in dimethyl sulfoxide (DMSO—99.9% pure) (Sigma Aldrich, Cat #: D4540) added to powder stocks to produce a 20 mM solution (100% DMSO) that was sonicated at 37° C. for 10 minutes to fully dissolve the compounds. The 20 mM stocks were diluted further in DMSO to produce a 2 mM solution that was sonicated at 37° C. for 10 minutes. 2 mM stocks were dissolved in assay/stimulation buffer to produce a 400 μM solution that was sonicated at 37° C. for 10 minutes for all cAMP assays. All stocks were stored at −20° C. Then serial dilution (Dilution factor: 10) was performed to achieve the desire experimental concentrations.\nCompetition assays were performed according to the manufactures instructions using LANCE® TR-FRET cAMP assay kit (Perkin Elmer, Cat #: AD0264). Serial dilutions (3 μl/well) of the molecules were plated in a 384-well OptiPlate (Perkin Elmer, Cat #: 6007299) in duplicates. Appropriate controls (100% stimulation: Forskolin and 0% stimulation: Vehicle control) (6 μl/well) were included in each plate for data normalization. Following the compound addition, 6 μl of G-protein coupled receptor overexpressing cells/Alexa Fluor antibody solution (1:100 dilution) was added in each well at a desired density of 2500cells/well. The overexpressing cell lines were purchased from DiscoveRx, Birmingham, UK. After spinning the plate at 1000 rpm for 1 minute and vortexing briefly, the cells were pre-incubated with the compounds for 30 minutes at room temperature (covered). Then 3 μl of the equivalent peptide ligand (EC50 dose) was added to all the wells except vehicle and forskolin controls. The plate were then spun down at 1000 rpm for 1 minute and once finished they were vortexed briefly and covered. Cells were stimulated in the presence of the ligands for 15 minutes at room temperature. After stimulation 12 μl of detection mix (Europium-Chelate streptavidin/biotinylated cAMP tracer solution) was added to all wells and incubated for 60 minutes at room temperature. The plate was then read on the Enspire multimode Plate reader (Perkin Elmer), at; 320/340 nm excitation and 615/665 nm emission was recorded.\nAssay/Stimulation Buffer (30 mL)—pH 7.4 • 28 mL Hank's Balanced salt solution (+MgCl2, +CaCl2)—(Thermo Fisher Cat #:14170112) • 150 μl HEPES (1M)—(Thermo Fisher Cat #:15630080) • 400 μl Stabilizer (DTPA) Purified BSA (7.5%)—(Perkin Elmer, Cat #: CR84-100)\nThe ability of a compound to inhibit the AM induced cAMP activation in AM2 receptor-expressing cells (1321N1 cells transfected with CALCRL+RAMP3, sourced from DiscoverX catalogue number 95-0169C6) was assessed using the protocol above.", "data": [{"smiles": "CCNCc1ccccc1CN(CC(=O)Nc1ccc2c(c1)C[C@@]1(C2)C(=O)Nc2ncccc21)C(=O)C1(CC)CCN(C(C)=O)CC1", "note": "[Example 134, (R)-1-Acetyl-4-ethyl-N-(2-((ethylamino)methyl)benzyl)-N-(2-oxo-2-((2′-oxo-1,1′,2′,3-tetrahydrospiro[indene-2,3′-pyrrolo[2,3-b]pyridin]-5-yl)amino)ethyl)piperidine-4-carboxamide]", "values": [{"measurement": "IC50", "result": 115, "unit": "nM"}]}, {"smiles": "CNCc1ccccc1CN(CC(=O)Nc1cc2c(cc1C)CC1(C2)C(=O)Nc2ncccc21)C(=O)C1(C)CCNCC1", "note": "(stereo not drawn) [Example 128, 4-Methyl-N-(2-((5-methyl-2′-oxo-1,1′,2′,3-tetrahydrospiro[indene-2,3′-pyrrolo[2,3-b]pyridin]-6-yl)amino)-2-oxoethyl)-N-(2-((methylamino)methyl)benzyl)piperidine-4-carboxamide]", "values": [{"measurement": "IC50", "result": 87.1, "unit": "nM"}]}, {"smiles": "CCC1(C(=O)N(CC(=O)Nc2ccc3c(c2)C[C@@]2(C3)C(=O)Nc3ncccc32)Cc2ccccc2CNC)CCN(C(=O)N2CCC2)CC1", "note": "[Example 106, (R)-1-(Azetidine-1-carbonyl)-4-ethyl-N-(2-((methylamino)methyl)benzyl)-N-(2-oxo-2-((2′-oxo-1,1′,2′,3-tetrahydrospiro[indene-2,3′-pyrrolo[2,3-b]pyridin]-5-yl)amino)ethyl)piperidine-4-carboxamide]", "values": [{"measurement": "IC50", "result": 11.7, "unit": "nM"}]}, {"smiles": "CCC1(C(=O)N(CC(=O)Nc2ccc3c(c2)C[C@@]2(C3)C(=O)Nc3ncccc32)Cc2ccccc2CNC)CCN(C(=O)COCCOCCOCCOCCOC)CC1", "note": "[Example 96, (R)-4-Ethyl-1-(2,5,8,11,14-pentaoxahexadecan-16-oyl)-N-(2-((methylamino)methyl)benzyl)-N-(2-oxo-2-((2′-oxo-1,1′,2′,3-tetrahydrospiro[indene-2,3′-pyrrolo[2,3-b]pyridin]-5-yl)amino)ethyl)piperidine-4-carboxamide]", "values": [{"measurement": "IC50", "result": 24.5, "unit": "nM"}]}, {"smiles": "CNCc1ccccc1CN(CC(=O)Nc1ccc2c(c1)CC1(C2)C(=O)Nc2ncccc21)C(=O)C1(C)CCN(C(=O)CN)CC1", "note": "(stereo not drawn) [Example 22, 1-(2-Aminoacetyl)-4-methyl-N-(2-((methylamino)methyl)benzyl)-N-(2-oxo-2-((2′-oxo-1,1′,2′,3-tetrahydrospiro[indene-2,3′-pyrrolo[2,3-b]pyridin]-5-yl)amino)ethyl)piperidine-4-carboxamide]", "values": [{"measurement": "IC50", "result": 0.631, "unit": "nM"}]}, {"smiles": "CCC1(C(=O)N(CC(=O)Nc2ccc3c(c2)C[C@@]2(C3)C(=O)Nc3ncccc32)Cc2ccccc2CNC)CCN(C(=O)[C@H](N)c2ccccc2)CC1", "note": "[Example 81, 1-((R)-2-Amino-2-phenylacetyl)-4-ethyl-N-(2-((methylamino)methyl)benzyl)-N-(2-oxo-2-(((R)-2′-oxo-1,1′,2′,3-tetrahydrospiro[indene-2,3′-pyrrolo[2,3-b]pyridin]-5-yl)amino)ethyl)piperidine-4-carboxamide]", "values": [{"measurement": "IC50", "result": 2.34, "unit": "nM"}]}, {"smiles": "CCC1(C(=O)N(CC(=O)Nc2ccc3c(c2)C[C@@]2(C3)C(=O)Nc3ncccc32)Cc2ccccc2CNC)CCN(C)C(=O)C1", "note": "(stereo partly drawn) [Example 140, 4-Ethyl-1-methyl-N-(2-((methylamino)methyl)benzyl)-2-oxo-N-(2-oxo-2-(((R)-2′-oxo-1,1′,2′,3-tetrahydrospiro[indene-2,3′-pyrrolo[2,3-b]pyridin]-5-yl)amino)ethyl)piperidine-4-carboxamide]", "values": [{"measurement": "IC50", "result": 417, "unit": "nM"}]}, {"smiles": "CNCc1ccccc1CN(CC(=O)Nc1ccc2c(c1)C[C@@]1(C2)C(=O)Nc2ncccc21)C(=O)C1(C)CCN(C(=O)c2ccc(N)cn2)CC1", "note": "[Example 29, (R)-1-(5-Aminopicolinoyl)-4-methyl-N-(2-((methylamino)methyl)benzyl)-N-(2-oxo-2-((2′-oxo-1,1′,2′,3-tetrahydrospiro[indene-2,3′-pyrrolo[2,3-b]pyridin]-5-yl)amino)ethyl)piperidine-4-carboxamide]", "values": [{"measurement": "IC50", "result": 17.8, "unit": "nM"}]}, {"smiles": "CNCc1ccccc1CN(CC(=O)Nc1ccc2c(c1)CC1(C2)C(=O)Nc2ncccc21)C(=O)C1(C)CCN(CC(F)(F)F)CC1", "note": "(stereo not drawn) [Example 38, 4-Methyl-N-(2-((methylamino)methyl)benzyl)-N-(2-oxo-2-((2′-oxo-1,1′,2′,3-tetrahydrospiro[indene-2,3′-pyrrolo[2,3-b]pyridin]-5-yl)amino)ethyl)-1-(2,2,2-trifluoroethyl)piperidine-4-carboxamide]", "values": [{"measurement": "IC50", "result": 10.5, "unit": "nM"}]}, {"smiles": "CCC1(C(=O)N(CC(=O)Nc2ccc3c(c2)C[C@@]2(C3)C(=O)Nc3ncccc32)Cc2ccccc2CNC)CCN(C(=O)NC)CC1", "note": "[Example 100]", "values": [{"measurement": "IC50", "result": 4.07, "unit": "nM"}]}, {"smiles": "CNCc1ccccc1CN(CC(=O)Nc1ccc2c(c1)C[C@@]1(C2)C(=O)Nc2ncccc21)C(=O)C1(C)CCN(c2cccnn2)CC1", "note": "[Example 59, (R)-4-Methyl-N-(2-((methylamino)methyl)benzyl)-N-(2-oxo-2-((2′-oxo-1,1′,2′,3-tetrahydrospiro[indene-2,3′-pyrrolo[2,3-b]pyridin]-5-yl)amino)ethyl)-1-(pyridazin-3-yl)piperidine-4-carboxamide]", "values": [{"measurement": "IC50", "result": 49, "unit": "nM"}]}, {"smiles": "CCC1(C(=O)N(CC(=O)Nc2ccc3c(c2)C[C@@]2(C3)C(=O)Nc3ncccc32)Cc2ccccc2CNC)CCN(C(=O)C(C)(C)F)CC1", "note": "[Example 88, (R)-4-Ethyl-1-(2-fluoro-2-methylpropanoyl)-N-(2-((methylamino)methyl)benzyl)-N-(2-oxo-2-((2′-oxo-1,1′,2′,3-tetrahydrospiro[indene-2,3′-pyrrolo[2,3-b]pyridin]-5-yl)amino)ethyl)piperidine-4-carboxamide]", "values": [{"measurement": "IC50", "result": 2.45, "unit": "nM"}]}, {"smiles": "CCC1(C(=O)N(CC(=O)Nc2ccc3c(c2)C[C@@]2(C3)C(=O)Nc3ncccc32)Cc2ccccc2CNC)CCN(C(=O)CN2CCC(F)(F)CC2)CC1", "note": "[Example 95, (R)-1-(2-(4,4-Difluoropiperidin-1-yl)acetyl)-4-ethyl-N-(2-((methylamino)methyl)benzyl)-N-(2-oxo-2-((2′-oxo-1,1′,2′,3-tetrahydrospiro[indene-2,3′-pyrrolo[2,3-b]pyridin]-5-yl)amino)ethyl)piperidine-4-carboxamide]", "values": [{"measurement": "IC50", "result": 12.6, "unit": "nM"}]}, {"smiles": "CCC1(C(=O)N(CC(=O)Nc2ccc3c(c2)C[C@@]2(C3)C(=O)Nc3ncccc32)Cc2ccccc2CNC)CCN(C(=O)[C@@H](N)C(C)C)CC1", "note": "[Example 82, 1-((S)-2-Amino-3-methylbutanoyl)-4-ethyl-N-(2-((methylamino)methyl)benzyl)-N-(2-oxo-2-(((R)-2′-oxo-1,1′,2′,3-tetrahydrospiro[indene-2,3′-pyrrolo[2,3-b]pyridin]-5-yl)amino)ethyl)piperidine-4-carboxamide]", "values": [{"measurement": "IC50", "result": 8.32, "unit": "nM"}]}, {"smiles": "CNCc1ccccc1CN(CC(=O)Nc1ccc2c(c1)C[C@@]1(C2)C(=O)Nc2ncccc21)C(=O)C1(C)CCN(c2ccccn2)CC1", "note": "[Example 62]", "values": [{"measurement": "IC50", "result": 77.6, "unit": "nM"}]}, {"smiles": "CNCc1ccccc1CN(CC(=O)Nc1ccc2c(c1)C[C@@]1(C2)C(=O)Nc2ncccc21)C(=O)C1(C)CCN(Cc2ccc(C(=O)O)cc2)CC1", "note": "[Example 46, (R)-4-[[4-Methyl-4-[[2-(methylaminomethyl)phenyl]methyl-[2-oxo-2-[[(3R)-2-oxospiro[1H-pyrrolo[2,3-b]pyridine-3,2′-indane]-5′-yl]amino]ethyl]carbamoyl]-1-piperidyl]methyl]benzoic Acid]", "values": [{"measurement": "IC50", "result": 25.7, "unit": "nM"}]}, {"smiles": "CCC1(C(=O)N(CC(=O)Nc2ccc3c(c2)C[C@@]2(C3)C(=O)Nc3ncccc32)Cc2ccccc2CNC)CCN(C(=O)N2CCOCC2)CC1", "note": "[Example 103, (R)-4-Ethyl-N-(2-((methylamino)methyl)benzyl)-1-(morpholine-4-carbonyl)-N-(2-oxo-2-((2′-oxo-1,1′,2′,3-tetrahydrospiro[indene-2,3′-pyrrolo[2,3-b]pyridin]-5-yl)amino)ethyl)piperidine-4-carboxamide]", "values": [{"measurement": "IC50", "result": 2.19, "unit": "nM"}]}, {"smiles": "CCC1(C(=O)N(CC(=O)Nc2ccc3c(c2)C[C@@]2(C3)C(=O)Nc3ncccc32)Cc2ccccc2CNC)CCNCC1", "note": "[Example 67, (R)-4-Ethyl-N-(2-((methylamino)methyl)benzyl)-N-(2-oxo-2-((2′-oxo-1,1′,2′,3-tetrahydrospiro[indene-2,3′-pyrrolo[2,3-b]pyridin]-5-yl)amino)ethyl)piperidine-4-carboxamide]", "values": [{"measurement": "IC50", "result": 0.575, "unit": "nM"}]}]}
